Measured values published in US20230052152A1, “COMPOUNDS FOR TREATMENT OF ALZHEIMER'S DISEASE” (SULFATEQ B.V., priority 2019, published 2023).
“Also recorded” adds a separate entry of the source.

Tests used:
[1] = system: SH-SY5Y cells; assay: Glutamate-induced excitotoxicity, differentiated SH-SY5Y neuronal-like cells, Neutral Red viability; type: cell-based; conditions: Homo sapiens, 60 mM glutamate 24 h; for EC50: 30 min pre-incubation, Neutral Red viability; for Emax: maximal restoration of viability
Description: (§1) Human SH-SY5Y neuroblastoma cells (ATCC #CRL-2266) were maintained in DMEM medium containing 10% fetal bovine serum and 1% Penicillin-Streptomycin solution (#P4333, Sigma-Aldrich, St. Louis, Mo.) and passaged when the cultures reach a confluency of 70%. Prior to experiments, SH-SY5Y cells were differentiated by serum reduction (to 1%) and stimulation with 10 μM retinoic acid (#R7882, Sigma-Aldrich, St. Louis, Mo.) for 72 hours. Differentiated SH-SY5Y cells were seeded at 0.6·10^5 cells/cm^2 for all experiments.
(§2) Differentiated SH-SY5Y cells were pre-incubated with SUL compounds (dose range 8·10^−4 to 1·10^−8 M) under standard culture conditions for 30 min and then stimulated with either 1-glutamate (60 mM; #12843-0, Sigma-Aldrich, St. Louis, Mo.) or dopamine (100 μM; #H8502, Sigma, St. Louis, Mo.) for an additional 24 h. Neutral Red Assay Solution (#N2889, Sigma-Aldrich, St. Louis, Mo.) was added to the cultures at a 10% (v/v) concentration during the final 4 hours of culture. Cells were washed with warm PBS and Neutral red solubilized in acid ethanol (1% acetic acid in 50% EtOH). Absorbances were recorded at 540 nm in a CLARIOStar Plus plate reader (BMG Labtech, Germany).
(§3) All experiments were performed in triplicate per condition and averaged. Data obtained from two individual experiments were used for evaluation in GraphPad Prism 8.0 (GraphPad Software Inc, Ca). 4 parameter non-linear regression was used to determine the efficacy and potency of SUL compounds to reduce the excitotoxicity induced by either 1-glutamate or dopamine.
SH-SY5Y neuroblastoma cells were differentiated into neuronal-like cells according to established protocols and stimulated with 60 mM glutamate to induce excitotoxicity.

[2] = system: SH-SY5Y cells; assay: as above; type: cell-based, human; conditions: 60 mM glutamate, 10^−3 to 10^−8 M
[3] = system: SH-SY5Y cells; assay: Dopamine-induced excitotoxicity, differentiated SH-SY5Y neuronal-like cells, Neutral Red viability; type: cell-based; conditions: Homo sapiens, dopamine 24 h; for EC50: 30 min pre-incubation, Neutral Red viability; for Emax: maximal restoration of viability
Description: as §1, §2, §3
Differentiated SH-SY5Y neuroblastoma cells were stimulated with 150 μM dopamine to induce excitotoxicity.

[4] = system: WT and APP/PS1 mice; assay: Phenotypers spontaneous behavior after chronic oral treatment; type: in vivo, mouse; conditions: 3 days in phenotypers
Description: (§4) The effectiveness of SUL-138 ((6-hydroxy-2,5,7,8-tetramethylchroman-2-yl)(4-(2-hydroxyethyl)piperazin-1-yl)methanone) in relieving/preventing common pathology in the APP/PS1 model was tested. The effect on memory was tested in a hippocampal dependent context test (Fear conditioning (FC)) and synaptic connectivity was tested via electrophysiological LTP (Long-term potentiation) measurements. Both are impaired in this mouse model under basal conditions. In addition, Phenotypers (Sylics) were used to exclude that SUL-138 induces atypical behavior after chronic oral treatment.
(§5) Wild type (WT) and APP/PS1 mice were each divided in 2 groups, either receiving vehicle or SUL-138 via their food. Group size amounted 12 animals. Based on mouse weight of ˜30 g, food intake of ˜5 g/day and desired oral intake of 30 mg/day/kg, food pellets were sprayed with SUL-138 in water with 0.0145% ethanol at 1 g SUL-138 in 5 kg food. Vehicle food was prepared by spraying with the same volume of 0.0145% ethanol containing water.
Phenotypers (provided by Sylics, Amsterdam, Netherlands): Mice were housed in the phenotypers for 3 days during which spontaneous behavior: activity, dark/light, habituation, kinematics, light dark phase transition pattern and sheltering were measured.

[5] = system: APP/PS1 mice; assay: Plaque load (anti-Amyloid beta 6E10 staining of hippocampal slices); type: in vivo, mouse; conditions: three months oral, versus vehicle
Description: APP/PS1 (n=10) and wildtype mice (WT, n=10) mice were treated, either with vehicle or SUL-138. Mice were treated for 3 months starting at 3 months of age with either SUL-138 or vehicle treated food pellets. The mice were sacrificed at 6 months of age, the age at which (among others) hippocampal dependent memory impairment and apparent plaque load are expected.
4% PFA perfused brains, stored on sucrose, were sliced at […] using a cryostat (−20° C.; Leica). Hippocampal slices (n=2/animal; 5 animals/group) were washed 3×10 min with 1× PBS, and then blocked for 1 h in Blocking solution (10 mL 1× PBS+500 μL normal Goat Serum+0.250 g Bovine Serum Albumin+20 μL Triton-100). The slices were incubated overnight with anti-Amyloid beta (6E10) (ITK Diagnostics, 1:400), washed 3×10 min with 1× PBS and then incubated with secondary Goat anti-mouse Alexa fluorescent 488 antibody (Sigma-Aldrich, 1:250) for 2 h. Then slices were washed 3×10 min with 1× PBS and mounted on slides.
Slices were imaged using the Zeiss Cell Discover 7 high content microscope with LSM900 confocal head. Using Fiji, both hippocampi were selected separately for 5 animals per group (yellow line in FIG. 3A) and number and size of plaques were measured (FIG. 3B, C). The mean number of plaques and plaque size per animal were used for statistical analyses in GraphPad 8 using Student's t-test, one-sided.

[6] = Bioavailability in brain; type: in vivo
[7] = system: prostaglandin synthases and the thromboxane synthase A; assay: Hippocampal protein expression of prostaglandin synthases and thromboxane synthase A; type: in vivo, mouse; conditions: hippocampal tissue, wildtype or APP/PS1 mice
Source text: Hippocampal tissue from wildtype and APP/PS1 mice was examined for the protein expression of prostaglandin synthases and the thromboxane synthase A. Peptides resembling the prostaglandin synthase PTGS1, PTGES2, PTGES3, and PTGFS were found in the hippocampal tissue of both wildtype and APP/PS1 mice (Table 4). No protein fragments of PTGS2, PTGDS, PTGES1, PTGIS and TXA could be found.

[8] = Overall welfare and body weight during chronic oral treatment; type: in vivo, mouse; conditions: vehicle versus SUL-138 treated animals
Description: as §5
(§6) Mice were treated chronically between 2.5 moa (pre-pathology/memory deficit) and 6 moa (age at which clear neuropathology and memory deficits occur) prior to testing.

[9] = system: WT and APP/PS1 mice; assay: Long-term potentiation (LTP) in acute hippocampal slices after chronic oral treatment; type: in vivo, mouse; conditions: 3×100 Hz stimulation, p<0.05
Source text: (§7) The APP/PS1 mouse model is a widely used A-beta pathology model for Alzheimer's disease (AD) (1 of the 2 main neuropathological hallmarks of AD). These mice contain human transgenes for APP (Swedish mutation) and PSEN1 (L166P mutation), which will lead to pathological amyloid deposition in the brain and impairments in hippocampal dependent memory and Long Term Potentiation (LTP) starting at ˜3 months of age (3 moa).
as §5, §6
LTP: Acute coronal hippocampal slices were kept in artificial CSF and LTP was measured after 3×100 Hz stimulation.
Between 8-14 hippocampal slices per group (2A: WT ctrl, WT SUL-138, 2B: APP ctrl, APP SUL-138) received LTP evoked by 3×100 Hz stimulation (tetanus) of 1 sec separated by 20 sec. The slope was measured for 60 min. LTP was expressed as a percentage of baseline. […]

[10] = system: WT and APP/PS1 mice; assay: Fear conditioning (hippocampal dependent context memory test), freezing; type: in vivo, mouse; conditions: chronic oral via food 2.5 to 6 moa, versus vehicle food
Source text: as §7, §4
Wild type (WT) and APP/PS1 mice were each divided in 2 groups, either receiving vehicle or SUL-138 via their food. Group size amounted 12 animals. […]
FC: mice were exposed to a context for 2 min after which they received a 0.7 mA footshock. […] 24 h later mice were put in the same context and freezing levels were measured for 2 min.
Memory was assessed at 6 moa by measuring freezing following context acquisition.

Cc1c(C)c2c(c(C)c1O)CCC(C)(C(=O)O)O2 (centres unmarked) [SUL-11, 6-hydroxy-2,5,7,8-tetramethylchroman-2-carboxylic acid, reference compound]
EC50 [1]: 4.62 µM
Emax [1]: 76.7%
Effectiveness in increasing viability of glutamate-challenged cells versus the other SUL-compounds [2]: clearly less effective
EC50 [3]: 8.35 µM
Emax [3]: 79.5%

Cc1c(C)c2c(c(C)c1O)CC[C@@](C)(C(=O)N[C@@H]1CCCNC1)O2 [SUL-13, (S)-6-hydroxy-2,5,7,8-tetramethyl-N-((R)-piperidin-3-yl)chromane-2-carboxamide]
EC50 [1]: 3.82 µM
Emax [1]: 100%
EC50 [3]: 0.324 µM
Emax [3]: 91.9%

Cc1c(C)c2c(c(C)c1O)CC[C@@](C)(C(=O)N1CCN(CCO)CC1)O2 [SUL-138, (S)-(6-hydroxy-2,5,7,8-tetramethylchroman-2-yl)(4-(2-hydroxyethyl)piperazin-1-yl)methanone]
Spontaneous behavior (activity, dark/light, habituation, kinematics, light dark phase transition pattern, sheltering) [4]: did not induce differences
Plaque size ([5]; p=0.0021): reduced
Number of plaques ([5]; p=0.0138): reduced
EC50 [1]: 1.42 µM
Emax [1]: 100%
Bioavailability in brain [6]: appears to be high
Protein expression of prostaglandin synthesizing enzymes [7]: did not alter
Overall welfare [8]: did not show differences
LTP maintenance (min 30-60) ([9]; APP mice): significantly (p<0.05) higher; also recorded: restore in APP/PS1 mice memory and LTP to control levels
LTP maintenance (min 30-60) ([9]; WT mice): significantly (p<0.05) higher
Freezing levels (memory) ([10]; APP/PS1 mice): increased; also recorded: restored to WT levels
Freezing levels (memory) ([10]; WT mice): increased
EC50 [3]: 0.66 µM
Emax [3]: 100%

Cc1c(C)c(O)c(CC[C@@](C)(O)C(=O)N2CCN(CCO)CC2)c(C)c1O [SUL-138M2, 4-(2,5-dihydroxy-3,4,6-trimethylphenyl)-2-hydroxy-1-(4-(2-hydroxyethyl)piperazin-1-yl)-2-methylbutan-1-one]
EC50 [1]: 4.43 µM
Emax [1]: 100%
EC50 [3]: 1.69 µM
Emax [3]: 94.7%

Cc1c(C)c2c(c(C)c1O)CC[C@](C)(C(=O)N1CCNCC1)O2 [SUL-150, (R)-(6-hydroxy-2,5,7,8-tetramethylchroman-2-yl)(piperazin-1-yl)methanone]
EC50 [1]: 0.122 µM
Emax [1]: 100%
EC50 [3]: 0.0555 µM
Emax [3]: 100%

Cc1c(C)c2c(c(C)c1O)CC[C@@](C)(C(=O)N1CCNCC1)O2 [SUL-151, (S)-(6-hydroxy-2,5,7,8-tetramethylchroman-2-yl)(piperazin-1-yl)methanone]
EC50 [1]: 0.0961 µM
Emax [1]: 100%
EC50 [3]: 0.0692 µM
Emax [3]: 100%
